How the values were obtained:
S49 mouse lymphoma cells = experiment: cAMP formation in S49 lymphoma cells (β-adrenergic agonist activity); assay type: cell-based; details: for EC50: Mus musculus, catecholamine derivative, read-out: KA (concentration of the catecholamine for approximately half maximal stimulation of cAMP concentration); for activity greater than that of isoproterenol / activity in words: S49 cell assay; for activity greater than that of isoproterenol: relative to isoproterenol
Excerpt: The in vitro testing of cAMP formation in S49 lymphoma cells is a well documented and accepted test for indicating and anticipating β-adrenergic activity in the mammalian body.
Such testing procedures and their significance has been set forth in a number of prior publications, e.g. Shear et al., J. Biol. Chem.; 251, 7572 (1976); Coffino, et al., In Vitro, 14, No. 1, 140 et.seq. (1978); and in Johnson, et al.; Molecular Pharmacology, 15, 16-27 (1978). The tests measure increased cyclic adenosine monophosphate (cAMP) concentration in the S49 cells. In Table 1, KA indicates the concentration of the catecholamine for approximately half maximal stimulation of cAMP concentration. Emax is a measure of the maximal response (cAMP concentration) of the S49 cells to the respective catecholamines regardless of how high the concentration of the catecholamines may become. The Table compares the response of the cells to the particular catecholamine derivatives with the cells' response to isoproterenol. Thus a measure of the relative biological activity can be obtained.

rats = experiment: blood pressure and heart rate changes in rats on administration of the drug; assay type: in vivo; details: rat, relative to isoproterenol
S49 cells = molecular target: T1, S49 cells (Mus musculus, UniProt P18762); experiment: KD in S49 cells; assay type: binding; details: relative to isoproterenol
T1 construct: endogenous in cells; host or cells: S49 lymphoma cells
Excerpt: (§1) A large dependence of activity on the length of the methylene chain i.e., (CH2)n is seen with the toluides (Compounds 10-14). Of the compounds noted, peak activity is seen in the case of n=4 (Compound 12), which has an activity approximately two orders of magnitude greater than that of isoproterenol.

C6 cells = molecular target: T2, C6 cells (Rattus norvegicus, UniProt P18090); experiment: KD in C6 cells; assay type: binding; details: relative to isoproterenol
T2 construct: endogenous in cells; host or cells: C6 cells
Excerpt: as §1

T1 sequence (P18762 whole entry): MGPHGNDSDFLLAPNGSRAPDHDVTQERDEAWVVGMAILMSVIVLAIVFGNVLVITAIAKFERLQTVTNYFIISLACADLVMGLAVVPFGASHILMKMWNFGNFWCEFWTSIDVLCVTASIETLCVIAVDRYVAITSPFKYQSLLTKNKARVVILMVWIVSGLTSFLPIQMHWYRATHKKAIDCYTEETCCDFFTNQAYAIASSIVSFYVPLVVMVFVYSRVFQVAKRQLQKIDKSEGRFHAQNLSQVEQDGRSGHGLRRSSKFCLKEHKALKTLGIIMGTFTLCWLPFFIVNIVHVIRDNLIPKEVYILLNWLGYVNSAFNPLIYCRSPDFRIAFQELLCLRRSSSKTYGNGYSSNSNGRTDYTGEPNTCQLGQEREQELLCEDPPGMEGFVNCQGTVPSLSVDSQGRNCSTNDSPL
T2 sequence (P18090 whole entry): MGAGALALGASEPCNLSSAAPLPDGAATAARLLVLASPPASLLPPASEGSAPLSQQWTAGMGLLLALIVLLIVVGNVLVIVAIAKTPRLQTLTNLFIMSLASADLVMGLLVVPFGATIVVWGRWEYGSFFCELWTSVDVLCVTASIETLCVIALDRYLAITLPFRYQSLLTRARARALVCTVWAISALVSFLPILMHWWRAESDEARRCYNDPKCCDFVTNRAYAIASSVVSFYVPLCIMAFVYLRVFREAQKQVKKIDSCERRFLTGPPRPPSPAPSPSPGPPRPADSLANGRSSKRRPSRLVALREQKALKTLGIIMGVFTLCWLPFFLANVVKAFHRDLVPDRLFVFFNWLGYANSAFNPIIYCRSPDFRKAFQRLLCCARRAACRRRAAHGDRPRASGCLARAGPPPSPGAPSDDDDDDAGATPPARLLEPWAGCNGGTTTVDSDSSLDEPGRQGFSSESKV

SMILES | EC50 (S49 mouse lymphoma cells; S49 lymphoma cells) [nM] | also measured
CC(CCC(=O)O)NCC(O)c1ccc(O)c(O)c1 (stereo not shown) [Compound 6] | 1600 | –
CC(CCCCC(=O)Nc1ccc(C(F)(F)F)cc1)NCC(O)c1ccc(O)c(O)c1 (stereo not shown) [Compound 17] | – | activity greater than that of isoproterenol (S49 mouse lymphoma cells): at least 3 orders of magnitude
CCCCc1ccc(NC(=O)CCCCC(C)NCC(O)c2ccc(O)c(O)c2)cc1 (stereo not shown) [Compound 15] | – | activity greater than that of isoproterenol (S49 mouse lymphoma cells): at least 3 orders of magnitude
CC(CCCCCC(=O)O)NCC(O)c1ccc(O)c(O)c1 (stereo not shown) [Compound 9] | 350 | –
CCCCNC(=O)CCCCC(C)NCC(O)c1ccc(O)c(O)c1 (stereo not shown) [Compound 19] | 0.18 | –
CC(C)NCC(O)c1ccc(O)c(O)c1 (racemic) [d,l-Isoproterenol, reference compound] | – | KA of d,l-isoproterenol (S49 mouse lymphoma cells; S49 lymphoma cells, comparison with the derivative on the same table line): 45 pM

Further compounds by falling EC50 (S49 mouse lymphoma cells; S49 lymphoma cells), results first:

EC50 (S49 mouse lymphoma cells; S49 lymphoma cells) [nM] | SMILES | also measured
370 | CC(CCCC(=O)O)NCC(O)c1ccc(O)c(O)c1 (stereo not shown) [Compound 7] | –
350 | CC(CCCCC(=O)O)NCC(O)c1ccc(O)c(O)c1 (stereo not drawn) [Compound 8, 6-(β-3,4-Dihydroxyphenyl-β-hydroxy)-ethylamino heptanoic acid] | –
22 | Cc1ccc(NC(=O)CCCCCC(C)NCC(O)c2ccc(O)c(O)c2)cc1 (stereo not shown) [Compound 14] | –
13 | COc1ccc(NC(=O)CCCCC(C)NCC(O)c2ccc(O)c(O)c2)cc1 (stereo not shown) [Compound 16] | activity in words (S49 mouse lymphoma cells): approximately the same activity as isoproterenol
8 | Cc1ccc(NC(=O)CCCC(C)NCC(O)c2ccc(O)c(O)c2)cc1 (stereo not shown) [Compound 11] | –
3.5 | Cc1ccc(NC(=O)CCC(C)NCC(O)c2ccc(O)c(O)c2)cc1 (stereo not shown) [Compound 10] | –
0.26 | CC(CCCCC(=O)NC1CCCCC1)NCC(O)c1ccc(O)c(O)c1 (stereo not shown) [Compound 20] | –
0.056 | Cc1ccc(NC(=O)CCCCC(C)NCC(O)c2ccc(O)c(O)c2)cc1 (stereo not drawn) [Compound 12, 6-(β-3,4-dihydroxyphenyl-β-hydroxy)-ethylamino Heptanoic Acid p-Toluide] | activity in words (S49 mouse lymphoma cells): peak activity; times more active than isoproterenol (rats): 50-70 times; KD lower than for isoproterenol (S49 cells): 2 orders of magnitude; KD lower than for isoproterenol (C6 cells): 2 orders of magnitude

Source: patent publication US4337207A, “Biologically active catecholamine derivatives” (Regents of the University of California, priority 1980, dated 1982)
